Data: paper PMC10380841, “Synthesis, Characterization and Cytotoxic Evaluation of New Pyrrolo[1,2-b]pyridazines Obtained via Mesoionic Oxazolo-Pyridazinones” (International Journal of Molecular Sciences, 2023)
Read-outs that look alike come from different tables or passages of the source.

What was measured:
Triticum aestivum L. = assay: Triticum test, phytotoxicity (main root length); type: in vivo; conditions: 10–1000 µM
Method: Phytobiological testing (Triticum test) was performed by the Constantinescu method which consists in determining the maximum active dilution of a compound. Depending on the duration of action, it can influence root elongation and the […] film. […] Embryonic wheat roots were obtained by germinating homogeneous wheat caryopses in Linhart pots. Then the caryopses with a main root length of 1 cm were placed in the test solutions. For the determination of the action of each compound, five dilutions in the concentration range of 10–1000 µM were obtained and 11 caryopses were placed in them. Petri dishes containing 15 mL of diluted solution were kept under constant conditions of temperature (25 °C), and humidity (60%), in the absence of light. […] The results were expressed in comparison with a 1% DMSO control.
Statistical analyses were performed using the computing and programming environment R, R, v. 4.2.1 [68], under Rstudio, v. 2022.07.2+576 “Spotted Wakerobin” for Windows (RStudio, PBC, Boston, 2022), both for the Triticum and Artemia tests. It used a parametric mixed-effects model (R package “lme4”) and a robust mixed-effects model (R package “robustlmm”), in which root length measurements (Triticum) from all three days were used as the dependent variable, whereas compound, concentration and time were treated as fixed effects, with time (day of measurement) also treated as a random effect. Assessing statistical significance for mixed-effects statistical models is controversial and complex, but as a pragmatic way of working, we have estimated p-values using the Kenward–Rogers approximation (R package “sjPlot”). A variety of R base functions and R packages were used to diagnose the regression models (“car” [72], “MASS” [73], and “gvlma” [74]). Mixed boxplot–dotplot plots were generated using the “ggplot2” package.
The “drc” R package was used to estimate IC50 values for the Triticum bioassay by nonlinear modeling. For Triticum, the relationship between root length and concentration was modeled using Weibull functions with 2, 3, or 4 parameters, depending on the data distribution, the models being selected from a range of several models with different functions and parameters, based on the Akaike’s information criterion (AIC).

Daphnia magna Straus = assay: Daphnia magna toxicity assay; type: in vivo; conditions: 48 h
Method: Young organisms of Daphnia magna were selected according to their size from a parthenogenetic culture maintained in an artificial medium for 24 h before the bioassay. The determination was conducted in tissue culture plates with 12 wells (Greiner Bio-One, Monroe, NC, USA), with 10 organisms in each well, and a final volume of 3 mL per sample [65, 66]. As a negative control, DMSO was used at a concentration of 1%. All compounds were tested at six different concentration levels, ranging from 12.5 to 500 μg/mL. All assessments were performed in duplicate.

[1] = system: LoVo colon adenocarcinoma cells; assay: MTS cytotoxicity assay, LoVo; type: cell-based, human; conditions: Homo sapiens
Method: (§1) Therefore, the precursor acids 2a–c and corresponding pyrrolo[1,2-b]pyridazines 5a–c,f were tested for their potential cytotoxic activity. During the assays, increasing concentrations of the compounds, ranging from […], were added for 24 h or 48 h to cancer LoVo, SK-OV-3, MCF-7, and the reference HUVEC cells, previously cultured for 24 h in 96-well flat bottom plates. […] Then, MTS reagent was added, and cells were incubated for 4 h at 37 °C in a 5% CO2 humidified atmosphere. The absorbance values were spectrophotometrically read to a Dynex ELISA reader at λ = […].
(§2) For the evaluation of the in vitro potential anti-proliferative effects of treatments with the new compounds under study against solid tumor-derived cells, several compound-mediated cytotoxicity assays were performed on three adherent tumor standardized cell lines, and normal human endothelial cells, used as control: the MCF-7 human breast adenocarcinoma and SK-OV-3 human ovary adenocarcinoma cell lines were provided from European Collection of Authenticated Cell Cultures (ECACC), while LoVo, human colorectal adenocarcinoma cell line, and HUVEC human umbilical vein endothelial cells were purchased from American Type Culture Collection (ATCC).
(§3) Adherent cells were cultivated in DMEM/F12 medium added with 2 mM L-glutamine and 10% fetal bovine serum, 100 units/mL penicillin, 100 µg/mL streptomycin (Sigma Aldrich, St. Louis, MO, USA) and incubated at 37 °C in 5% CO2 humidified atmosphere. The stock solutions for cell treatments were prepared by dissolving the synthesized compounds in a minimum amount of DMSO. Working dilutions were prepared from the stock solutions in culture medium before each treatment assay. After 24 h, when cell cultures achieved around 70% confluence, treatments were applied for various periods of time with different concentrations of synthesized compounds or oncolytic drugs, used as positive controls.
(§4) Therefore, cell cultures treated with the new compounds or oncolytic drugs for 24 h or 48 h were further subjected to a colorimetric cell viability method, the MTS assay. The absorbance of probes was read, data were calculated, and percentages of cell viability were assessed.
(§5) The evaluation of the compound-induced cytotoxicity was made using the CellTiter 96 Aqueous One Solution Cell Proliferation Assay (Promega, Madison, WI, USA), a reagent that contains both MTS (3-(4,5-dimethylthiazol-2-yl)-5-(3-carboxymethoxyphenyl)-2-(4-sulfophenyl)-2H-tetrazolium, inner salt) and PES ([…], a cationic dye with high chemical stability that binds to MTS and forms a stable solution).
(§6) Briefly, 1.5 × 10^4 cancer or normal cells were cultured in 100 µL/well for 24 h. After the culture supernatants were discarded, cells were treated for additional 24 h or 48 h with increasing concentrations of new compounds or oncolytic drugs. Following the specific treatments, in each well a volume of 20 µL of coloring mixture reagent of MTS and PES was added, and then the plates were incubated with mild agitation every 20 min for 4 h at 37 °C. The color developed during incubation was spectrophotometrically quantified at λ = 492 nm using a Dynex ELISA reader (DYNEX Technologies—MRS, Chantilly, VA, USA).
(§7) Data were expressed as percentages of cell viability of the treated cells, and were calculated and compared to the untreated cells (considered 100% viable), using the formula:Cell viability (%) = (T − B)/(U − B) × 100 where T = absorbance of treated cells, U = absorbance of untreated cells, and B = absorbance of culture medium (blank), for λ = 492 nm.
(§8) The cell viability data were expressed as the mean values ± standard deviations (SD) of three different experiments (n = 3). […] Moreover, a parallel experiment was performed in the absence of cells, with all the concentrations of the compounds being tested for their potential interference with MTS reagents; then, their absorbance values were extracted during calculations.

[2] = system: SK-OV-3 ovary adenocarcinoma cells; assay: MTS cytotoxicity assay, SK-OV-3; type: cell-based, human; conditions: Homo sapiens
Method: as §1, §2, §3, §4, §5, §6, §7, §8

[3] = system: LoVo colon adenocarcinoma cells; assay: MTS cytotoxicity assay, LoVo; type: cell-based; conditions: Homo sapiens, 400 μM, read-out: cell viability
[4] = system: SK-OV-3 ovary adenocarcinoma cells; assay: MTS cytotoxicity assay, SK-OV-3; type: cell-based; conditions: Homo sapiens; SK-OV-3, 400 μM, 24 h; read-out: cell viability

CCOC(=O)c1cc(CC)n2nc(-c3ccc(F)cc3)ccc12 [Compound 5e, Ethyl 7-ethyl-2-(4-fluorophenyl)pyrrolo[1,2-b]pyridazine-5-carboxylate]
effect on root length (Triticum aestivum L.; vs 1% DMSO control): concentration-dependent inhibitory effect
IC50 (Triticum aestivum L.; Triticum aestivum, 72 h, Triticum root length, measured over three days): 607 µM
toxicity on Daphnia magna (Daphnia magna Straus): moderate toxicity
IC50 ([1]; 24 h, read-out: IC50 LoVo 24 h): ≥ 400 µM
IC50 ([1]; 48 h, read-out: IC50 LoVo 48 h): ≥ 400 µM
IC50 ([2]; SK-OV-3, 24 h, read-out: IC50 Sk-OV-3 24 h): ≥ 400 µM
IC50 ([2]; SK-OV-3, 48 h, read-out: IC50 Sk-OV-3 48 h): ≥ 400 µM
viability at 400 µM ([3]; 24 h): 82.2%
viability at 400 µM ([3]; 48 h): 67.4%
viability at 400 µM [4]: 87.5%
